# Data from patent US20100168112A1, “2-Substituted and 4-substituted aryl nitrone compounds” (RENOVIS, INC., priority 2004, published 2010).
# What was measured:
# STZ-diabetic rats [1] = assay: Diabetic neuropathy, mechanical allodynia (von Frey filaments); assay type: in vivo, rat; conditions: 25 mg/kg, p.o., bid, x49 d
# Experimental: Adult male Sprague Dawley (SD) rats weighing 250-300 gm (Charles River Laboratories, San Diego, Calif.) were used. The animal room was lighted artificially at a 12-hr light-dark cycle (from 7:00 A.M. to 7:00 P.M.) with water and food supply ad libitum. Animals were allocated randomly into groups. Forty-nine (49) days prior to the behavioral tests, rats received a bolus injection of STZ (75 mg/kg, i.v.). STZ was dissolved in 0.1 M sodium citrate buffer, pH 4.5 solution, at the concentration of 75 mg/ml. To ensure the development of hyperglycemia, their non-fasted levels of glucose in whole blood, obtained via tail veins, were evaluated, using a glocometer (Accucheck®, Roche Diagnostics, Palo Alto, Calif.), once a week. Animals failing to show hyperglycemic conditions (i.e., whole blood glucose>120 mg/dL) were removed from the study. Diabetic rats were treated orally with Compound 62 (5 mg/kg or 25 mg/kg, both bid) or vehicle (1 ml/kg, bid), starting the date of STZ-injection. Compound 62 was dissolved in vehicle, which is composed of 96% of 0.5% CMC and 4% of 10% Tween 80. As a control, a group of naive rats received oral Compound 62 (25 mg/kg, bid) or vehicle (1 ml/kg, bid) treatment. Each group had >12 rats. […]
# STZ-diabetic rats [2] = assay: Diabetic neuropathy, mechanical hyperalgesia (paw-withdrawal reflex test, Basile Analgesymeter); assay type: in vivo, Sprague Dawley (SD) rats; conditions: p.o., bid; for PWT (paw-withdrawal threshold), mechanical hyperalgesia: STZ-diabetic rats, mean ± SEM
# Description: In this example, the ability of Compound 62 to produce beneficial effects in protecting against and/or reversing the pathology of neuropathy in a streptozotocin (STZ)-induced rat model of diabetes. To evaluate if chronic treatment with Compound 62 protects the diabetic animals from developing neuropathy, they were examined for mechanical hyperalgesia responses.
# Adult male Sprague Dawley (SD) rats weighing 250-300 gm (Charles River Laboratories, San Diego, Calif.) were used. The animal room was lighted artificially at a 12-hr light-dark cycle (from 7:00 A.M. to 7:00 P.M.) with water and food supply ad libitum. Animals were allocated randomly into groups. Forty-nine (49) days prior to the behavioral tests, rats received a bolus injection of STZ (75 mg/kg, i.v.). STZ was dissolved in 0.1 M sodium citrate buffer, pH 4.5 solution, at the concentration of 75 mg/ml. To ensure the development of hyperglycemia, their non-fasted levels of glucose in whole blood, obtained via tail veins, were evaluated, using a glocometer (Accucheck®, Roche Diagnostics, Palo Alto, Calif.), once a week. Animals failing to show hyperglycemic conditions (i.e., whole blood glucose>120 mg/dL) were removed from the study. Diabetic rats were treated orally with Compound 62 (5 mg/kg or 25 mg/kg, both bid) or vehicle (1 ml/kg, bid), starting the date of STZ-injection. Compound 62 was dissolved in vehicle, which is composed of 96% of 0.5% CMC and 4% of 10% Tween 80. As a control, a group of naive rats received oral Compound 62 (25 mg/kg, bid) or vehicle (1 ml/kg, bid) treatment. Each group had >12 rats. Time-effect curves of the STZ diabetic rats (Compound 62 vs. Vehicle) were compared with each other, while curves of the naive rats (Compound 62 vs. Vehicle) were compared with each other. The comparisons were conducted, using two-way (group×time) repeated measures analysis of variance (ANOVA) followed by Fishers post-hoc test. A probability value of p<0.05 was considered as statistically significant.
# Before the experiments, these rats were trained in the paw-withdrawal reflex test, using a Basile Analgesymeter (Ugo Basile, Biological Research Apparatus, Comerio VA, Italy), which applies a linearly increasing mechanical force to the dorsum of the rats hind paw. The training of mechanical nociceptive flexion reflex response was performed on lightly restrained rats, at 5-min intervals for 1 hr each day for a period of 5 days. On the day of the experiment, paw-withdrawal thresholds (PWT) (i.e., mechanical force that causes the animal to withdraw its paw from the stimulus) were measured at 5-min intervals for 1 hr. The mean was obtained from the average of the last 6 PWT readings. […]
compound,measurement,setting,value
"CC(C)(C)/[N+]([O-])=C/c1ccc(S(C)(=O)=O)cc1 [Compound 62, N-tert-Butyl-C-[4-(methanesulfonyl)phenyl]nitrone]",effect on PWT / reversal of allodynia vs vehicle (in words),STZ-diabetic rats [1],significantly enhanced the PWT
same,"PWT (von Frey), mechanical allodynia",STZ-diabetic rats [1]; mean ± SEM,6.08 ± 0.94 GRAMS
same,significantly reversed mechanical hyperalgesia compared with vehicle-treated STZ-diabetic rats (in words),"STZ-diabetic rats [2]; 5 mg/kg, x49 d",not
same,reversal of mechanical hyperalgesia compared with vehicle-treated STZ-diabetic rats (in words),"STZ-diabetic rats [2]; 25 mg/kg, x49 d",significantly reversed mechanical hyperalgesia
same,"PWT (paw-withdrawal threshold), mechanical hyperalgesia","STZ-diabetic rats [2]; 5 mg/kg, x49 d (low dose, 62L)",70.29 ± 3.18 GRAMS
same,"PWT (paw-withdrawal threshold), mechanical hyperalgesia","STZ-diabetic rats [2]; 25 mg/kg, x49 d (high dose, 62H)",86.86 ± 4.79 GRAMS
